Earlier results as cited in patent US9181307B2, “Influenza A 2009 pandemic H1N1 polypeptide fragments comprising endonuclease activity and their use” (priority 2010, dated 2015).

Molecular target: influenza endonuclease (Influenza A virus, UniProt P03433)
Conditions: recently reported, Kuzuhara 2009; cited from earlier work

Q: With `O=C(O[C@@H]1Cc2c(O)cc(O)cc2O[C@@H]1c1cc(O)c(O)c(O)c1)c1cc(O)c(O)c(O)c1` [EGCG, [(2R,3R)-5,7-dihydroxy-2-(3,4,5-trihydroxyphenyl)chroman-3-yl]3,4,5-trihydroxybenzoate] as the compound, how does the “inhibits the influenza endonuclease” value read?
A: inhibits the influenza endonuclease
